Measurements: ChEMBL document CHEMBL4334450, “Green synthesis, biological evaluation, molecular docking studies and 3D-QSAR analysis of novel phenylalanine linked quinazoline-4(3H)-one-sulphonamide hybrid entities distorting the malarial reductase activity in folate pathway” (Bioorg Med Chem, 2019)
In brackets after ≈: the same amount, converted by molar mass.

system: Vero; assay: Cytotoxicity against African green monkey Vero cells assessed as reduction in cell viability incubated for 72 hrs by CellTiter 96 Non-radioactive Cell Proliferation Assay; type: cell-based; settings: Chlorocebus sabaeus

| SMILES | IC50 [µg/mL] |
| --- | --- |
| CC(=O)Nc1ccc(S(=O)(=O)NC(Cc2ccccc2)c2nc3ccccc3c(=O)n2/N=C/c2cccc(F)c2)cc1 (centres undefined) | 15 (≈ 25.7 µM) |
| CC(=O)Nc1ccc(S(=O)(=O)NC(Cc2ccccc2)c2nc3ccccc3c(=O)n2/N=C/c2ccc(C)cc2)cc1 (centres undefined) | 15 (≈ 25.9 µM) |
| CC(=O)Nc1ccc(S(=O)(=O)NC(Cc2ccccc2)c2nc3ccccc3c(=O)n2/N=C/c2ccc(Br)cc2)cc1 (centres undefined) | 15 (≈ 23.3 µM) |
| CC(=O)Nc1ccc(S(=O)(=O)NC(Cc2ccccc2)c2nc3ccccc3c(=O)n2/N=C/c2ccc(F)cc2)cc1 (centres undefined) | 15 (≈ 25.7 µM) |
| CC(=O)Nc1ccc(S(=O)(=O)NC(Cc2ccccc2)c2nc3ccccc3c(=O)n2/N=C/c2cccc(Cl)c2)cc1 (centres undefined) | 15 (≈ 25 µM) |

system: Plasmodium falciparum; assay: Antimalarial activity against Plasmodium falciparum FCR3 infected in human erythrocytes by Giemsa staining analysis; type: functional, organism-based; settings: not given

| IC50 [µg/mL] | SMILES |
| --- | --- |
| 0.067 (≈ 0.116 µM) | CC(=O)Nc1ccc(S(=O)(=O)NC(Cc2ccccc2)c2nc3ccccc3c(=O)n2/N=C/c2ccc(C)cc2)cc1 (centres undefined) |
| 0.84 (≈ 1.4 µM) | CC(=O)Nc1ccc(S(=O)(=O)NC(Cc2ccccc2)c2nc3ccccc3c(=O)n2/N=C/c2ccc(Cl)cc2)cc1 (centres undefined) |
| 0.092 (≈ 0.143 µM) | CC(=O)Nc1ccc(S(=O)(=O)NC(Cc2ccccc2)c2nc3ccccc3c(=O)n2/N=C/c2ccc(Br)cc2)cc1 (centres undefined) |
| 0.68 (≈ 1.17 µM) | CC(=O)Nc1ccc(S(=O)(=O)NC(Cc2ccccc2)c2nc3ccccc3c(=O)n2/N=C/c2ccc(O)cc2)cc1 (centres undefined) |
| 0.72 (≈ 1.21 µM) | COc1ccc(/C=N/n2c(C(Cc3ccccc3)NS(=O)(=O)c3ccc(NC(C)=O)cc3)nc3ccccc3c2=O)cc1 (centres undefined) |
| 1.28 (≈ 2.26 µM) | CC(=O)Nc1ccc(S(=O)(=O)NC(Cc2ccccc2)c2nc3ccccc3c(=O)n2/N=C/c2ccccc2)cc1 (centres undefined) |
| 0.067 (≈ 0.115 µM) | CC(=O)Nc1ccc(S(=O)(=O)NC(Cc2ccccc2)c2nc3ccccc3c(=O)n2/N=C/c2ccc(F)cc2)cc1 (centres undefined) |
| 1.24 (≈ 2.13 µM) | CC(=O)Nc1ccc(S(=O)(=O)NC(Cc2ccccc2)c2nc3ccccc3c(=O)n2/N=C/c2cccc(O)c2)cc1 (centres undefined) |
| 0.72 (≈ 1.18 µM) | CC(=O)Nc1ccc(S(=O)(=O)NC(Cc2ccccc2)c2nc3ccccc3c(=O)n2/N=C/c2ccc([N+](=O)[O-])cc2)cc1 (centres undefined) |

Further lines, the compound ahead of its results:

| SMILES | IC50 [µg/mL] |
| --- | --- |
| CC(=O)Nc1ccc(S(=O)(=O)NC(Cc2ccccc2)c2nc3ccccc3c(=O)n2/N=C/c2cccc([N+](=O)[O-])c2)cc1 (centres undefined) | 1.12 (≈ 1.83 µM) |
| CC(=O)Nc1ccc(S(=O)(=O)NC(Cc2ccccc2)c2nc3ccccc3c(=O)n2/N=C/c2cccc(F)c2)cc1 (centres undefined) | 0.084 (≈ 0.144 µM) |
| CC(=O)Nc1ccc(S(=O)(=O)NC(Cc2ccccc2)c2nc3ccccc3c(=O)n2/N=C/c2ccccc2C)cc1 (centres undefined) | 1.26 (≈ 2.17 µM) |
| CC(=O)Nc1ccc(S(=O)(=O)NC(Cc2ccccc2)c2nc3ccccc3c(=O)n2/N=C/c2cccc(Br)c2)cc1 (centres undefined) | 0.92 (≈ 1.43 µM) |
| COc1ccccc1/C=N/n1c(C(Cc2ccccc2)NS(=O)(=O)c2ccc(NC(C)=O)cc2)nc2ccccc2c1=O (centres undefined) | 1.05 (≈ 1.77 µM) |
| COc1cccc(/C=N/n2c(C(Cc3ccccc3)NS(=O)(=O)c3ccc(NC(C)=O)cc3)nc3ccccc3c2=O)c1 (centres undefined) | 1.01 (≈ 1.7 µM) |
| CC(=O)Nc1ccc(S(=O)(=O)NC(Cc2ccccc2)c2nc3ccccc3c(=O)n2/N=C/c2ccccc2F)cc1 (centres undefined) | 1.28 (≈ 2.19 µM) |
| CC(=O)Nc1ccc(S(=O)(=O)NC(Cc2ccccc2)c2nc3ccccc3c(=O)n2/N=C/c2ccccc2Cl)cc1 (centres undefined) | 0.72 (≈ 1.2 µM) |
| CC(=O)Nc1ccc(S(=O)(=O)NC(Cc2ccccc2)c2nc3ccccc3c(=O)n2/N=C/c2ccccc2[N+](=O)[O-])cc1 (centres undefined) | 1.52 (≈ 2.49 µM) |
| CC(=O)Nc1ccc(S(=O)(=O)NC(Cc2ccccc2)c2nc3ccccc3c(=O)n2/N=C/c2ccccc2O)cc1 (centres undefined) | 0.78 (≈ 1.34 µM) |
| CC(=O)Nc1ccc(S(=O)(=O)NC(Cc2ccccc2)c2nc3ccccc3c(=O)n2/N=C/c2cccc(Cl)c2)cc1 (centres undefined) | 0.082 (≈ 0.137 µM) |
| CC(=O)Nc1ccc(S(=O)(=O)NC(Cc2ccccc2)c2nc3ccccc3c(=O)n2/N=C/c2ccccc2Br)cc1 (centres undefined) | 0.7 (≈ 1.09 µM) |
| CC(=O)Nc1ccc(S(=O)(=O)NC(Cc2ccccc2)c2nc3ccccc3c(=O)n2/N=C/c2cccc(C)c2)cc1 (centres undefined) | 0.78 (≈ 1.35 µM) |
| C=C[C@H]1CN2CC[C@H]1C[C@H]2[C@H](O)c1ccnc2ccc(OC)cc12 [QUININE] | 0.268 (≈ 0.826 µM) |

molecular target: T1, Dihydrofolate reductase (Bos taurus, UniProt P00376); assay: Inhibition of bovine liver DHFR using FH2 as substrate incubated for 2 mins followed by substrate addition; settings: not given
T1 sequence (P00376 whole entry): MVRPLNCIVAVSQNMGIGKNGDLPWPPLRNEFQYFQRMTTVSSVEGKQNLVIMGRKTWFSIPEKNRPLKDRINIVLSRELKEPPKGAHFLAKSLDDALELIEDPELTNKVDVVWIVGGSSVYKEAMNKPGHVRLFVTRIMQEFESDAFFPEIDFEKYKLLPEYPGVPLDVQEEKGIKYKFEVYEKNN

| IC50 [nM] | SMILES |
| --- | --- |
| 94.9 | CC(=O)Nc1ccc(S(=O)(=O)NC(Cc2ccccc2)c2nc3ccccc3c(=O)n2/N=C/c2ccc(C)cc2)cc1 (centres undefined) |
| 129 | CC(=O)Nc1ccc(S(=O)(=O)NC(Cc2ccccc2)c2nc3ccccc3c(=O)n2/N=C/c2ccc(Br)cc2)cc1 (centres undefined) |
| 61.7 | CC(=O)Nc1ccc(S(=O)(=O)NC(Cc2ccccc2)c2nc3ccccc3c(=O)n2/N=C/c2ccc(F)cc2)cc1 (centres undefined) |

The next lines start with the compound.

| SMILES | IC50 [nM] |
| --- | --- |
| CC(=O)Nc1ccc(S(=O)(=O)NC(Cc2ccccc2)c2nc3ccccc3c(=O)n2/N=C/c2cccc(F)c2)cc1 (centres undefined) | 49.7 |
| CC(=O)Nc1ccc(S(=O)(=O)NC(Cc2ccccc2)c2nc3ccccc3c(=O)n2/N=C/c2cccc(Cl)c2)cc1 (centres undefined) | 81.7 |

system: not listed separately; assay: Therapeutic index, ratio of CC50 for human RBC to EC50 for Plasmodium falciparum infected in human RBC; type: toxicity; settings: human red blood cells (RBC), read-out: Ratio CC50/EC50

| SMILES | selectivity ratio |
| --- | --- |
| CC(=O)Nc1ccc(S(=O)(=O)NC(Cc2ccccc2)c2nc3ccccc3c(=O)n2/N=C/c2cccc(F)c2)cc1 (centres undefined) | 20.6 |
| CC(=O)Nc1ccc(S(=O)(=O)NC(Cc2ccccc2)c2nc3ccccc3c(=O)n2/N=C/c2ccc(C)cc2)cc1 (centres undefined) | 1670 |
| CC(=O)Nc1ccc(S(=O)(=O)NC(Cc2ccccc2)c2nc3ccccc3c(=O)n2/N=C/c2ccc(Br)cc2)cc1 (centres undefined) | 91.5 |
| CC(=O)Nc1ccc(S(=O)(=O)NC(Cc2ccccc2)c2nc3ccccc3c(=O)n2/N=C/c2ccc(F)cc2)cc1 (centres undefined) | 15.4 |
| CC(=O)Nc1ccc(S(=O)(=O)NC(Cc2ccccc2)c2nc3ccccc3c(=O)n2/N=C/c2cccc(Cl)c2)cc1 (centres undefined) | 51.1 |

system: bovine liver DHFR; assay: Therapeutic index, ratio of IC50 for African green monkey Vero cells to IC50 for bovine liver DHFR; type: toxicity; settings: read-out: Ratio IC50

| SMILES | selectivity ratio |
| --- | --- |
| CC(=O)Nc1ccc(S(=O)(=O)NC(Cc2ccccc2)c2nc3ccccc3c(=O)n2/N=C/c2cccc(F)c2)cc1 (centres undefined) | 517 |
| CC(=O)Nc1ccc(S(=O)(=O)NC(Cc2ccccc2)c2nc3ccccc3c(=O)n2/N=C/c2ccc(C)cc2)cc1 (centres undefined) | 273 |
| CC(=O)Nc1ccc(S(=O)(=O)NC(Cc2ccccc2)c2nc3ccccc3c(=O)n2/N=C/c2ccc(Br)cc2)cc1 (centres undefined) | 181 |
| CC(=O)Nc1ccc(S(=O)(=O)NC(Cc2ccccc2)c2nc3ccccc3c(=O)n2/N=C/c2ccc(F)cc2)cc1 (centres undefined) | 417 |
| CC(=O)Nc1ccc(S(=O)(=O)NC(Cc2ccccc2)c2nc3ccccc3c(=O)n2/N=C/c2cccc(Cl)c2)cc1 (centres undefined) | 306 |

system: Plasmodium falciparum; assay: Antiplasmodial activity against Plasmodium falciparum infected in human RBC […] by MTT assay; type: functional, organism-based; settings: not given

| SMILES | EC50 [ppm] |
| --- | --- |
| CC(=O)Nc1ccc(S(=O)(=O)NC(Cc2ccccc2)c2nc3ccccc3c(=O)n2/N=C/c2cccc(F)c2)cc1 (centres undefined) | 2831 |
| CC(=O)Nc1ccc(S(=O)(=O)NC(Cc2ccccc2)c2nc3ccccc3c(=O)n2/N=C/c2ccc(C)cc2)cc1 (centres undefined) | 1106 |
| CC(=O)Nc1ccc(S(=O)(=O)NC(Cc2ccccc2)c2nc3ccccc3c(=O)n2/N=C/c2ccc(Br)cc2)cc1 (centres undefined) | 115.61 |
| CC(=O)Nc1ccc(S(=O)(=O)NC(Cc2ccccc2)c2nc3ccccc3c(=O)n2/N=C/c2ccc(F)cc2)cc1 (centres undefined) | 1909 |
| CC(=O)Nc1ccc(S(=O)(=O)NC(Cc2ccccc2)c2nc3ccccc3c(=O)n2/N=C/c2cccc(Cl)c2)cc1 (centres undefined) | 368.97 |
| CCN(CC)CCCC(C)Nc1ccnc2cc(Cl)ccc12 (centres undefined) [CHLOROQUINE] | 28.97 |

system: Erythrocyte; assay: Cytotoxicity against human RBC assessed as reduction in cell viability by MTT assay; type: cell-based; settings: not given

| SMILES | CC50 [ppm] |
| --- | --- |
| CC(=O)Nc1ccc(S(=O)(=O)NC(Cc2ccccc2)c2nc3ccccc3c(=O)n2/N=C/c2cccc(F)c2)cc1 (centres undefined) | 58408 |
| CC(=O)Nc1ccc(S(=O)(=O)NC(Cc2ccccc2)c2nc3ccccc3c(=O)n2/N=C/c2ccc(Br)cc2)cc1 (centres undefined) | 10575 |
| CC(=O)Nc1ccc(S(=O)(=O)NC(Cc2ccccc2)c2nc3ccccc3c(=O)n2/N=C/c2ccc(F)cc2)cc1 (centres undefined) | 29330 |
| CC(=O)Nc1ccc(S(=O)(=O)NC(Cc2ccccc2)c2nc3ccccc3c(=O)n2/N=C/c2cccc(Cl)c2)cc1 (centres undefined) | 18850 |
| CCN(CC)CCCC(C)Nc1ccnc2cc(Cl)ccc12 (centres undefined) [CHLOROQUINE] | 466.66 |

system: Plasmodium falciparum; assay: Antiplasmodial activity against Plasmodium falciparum infected in human RBC assessed as reduction in parasite LDH activity by spectrophotometric assay; type: functional, organism-based; settings: not given

| IC50 [ppm] | SMILES |
| --- | --- |
| 8432 | CC(=O)Nc1ccc(S(=O)(=O)NC(Cc2ccccc2)c2nc3ccccc3c(=O)n2/N=C/c2ccc(C)cc2)cc1 (centres undefined) |
| 96.38 | CC(=O)Nc1ccc(S(=O)(=O)NC(Cc2ccccc2)c2nc3ccccc3c(=O)n2/N=C/c2ccc(Br)cc2)cc1 (centres undefined) |
| 3402 | CC(=O)Nc1ccc(S(=O)(=O)NC(Cc2ccccc2)c2nc3ccccc3c(=O)n2/N=C/c2ccc(F)cc2)cc1 (centres undefined) |

The next lines start with the compound.

| SMILES | IC50 [ppm] |
| --- | --- |
| CC(=O)Nc1ccc(S(=O)(=O)NC(Cc2ccccc2)c2nc3ccccc3c(=O)n2/N=C/c2cccc(F)c2)cc1 (centres undefined) | 4672 |
| CC(=O)Nc1ccc(S(=O)(=O)NC(Cc2ccccc2)c2nc3ccccc3c(=O)n2/N=C/c2cccc(Cl)c2)cc1 (centres undefined) | 524.8 |
